Source: US10738056B2 (Aduro BioTech, Inc., priority 2017, dated 2020)

Assays:
[1] = system: cGAS/STING pathway in THP1 cells; experiment: THP1 cell-based cGAS/STING pathway activity assay (IRF-3-linked luciferase reporter); details: Homo sapiens, THP-1
Outline: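 THP1 cells carrying an IRF-3-driven luciferase reporter were read across a range of compound concentrations, and IC50 values were derived from these concentration responses; the assay upper limit was 100 μM.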

Trex1-KO BMM = experiment: Viability of Trex1-KO BMM (Cell Titer Glo 2.0); type: cell-based, mice; details: Trex1-KO BMM at the cytokine IC50 concentrations
Protocol: The inhibition of secreted cytokine was measured in bone marrow-derived macrophages (BMMs) from diseased mice to evaluate the potency of compounds of the invention as described herein. […] To derive bone marrow macrophages, marrow extracted from the femurs and tibias were harvested from Trex1-KO mice was cultured in growth media supplemented with macrophage colony-stimulating factor (M-CSF). Differentiated BMM were harvested and frozen for subsequent experimentation. For treatment with compound C1089 (see Example 13), a frozen stock of Trex1-KO BMM was thawed and 1×10^5 cells were plated in 96 well format. BMMs were treated with a dilution series of C1089 and incubated overnight at 37° C. 5% CO2, at which point cellular supernatants were harvested and stored at −80° C. for subsequent analysis. The media used for this dilution series was without FBS. Remaining cells were evaluated for viability using Cell Titer Glo 2.0 kit according to the manufacturer instructions. BMM supernatants were evaluated for the secreted cytokine […] (RANTES/CCL5) or for secreted cytokine monocyte chemoattractant protein 1 (MCP-1/CCL2) using cytometric bead array mouse Flex Set kits (BD Biosciences). Cytokine concentration was calculated from a standard curve and normalized to vehicle (DMSO) treated cells.

[2] = system: RANTES/CCL5 secretion by Trex1-KO BMM; experiment: Inhibition of RANTES/CCL5 secretion by Trex1-KO bone marrow-derived macrophages; type: cell-based, mice; details: Mus musculus, Macrophage, overnight, media without FBS, normalized to DMSO, read-out: RANTES/CCL5 IC50
Outline: (§1)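 Bone marrow macrophages from Trex1-KO mice, differentiated with M-CSF, 1×10^5 cells/well, treated overnight at 37 °C with a compound dilution series in FBS-free medium. Secreted cytokine measured by cytometric bead array from a standard curve, normalized to DMSO; viability by CellTiter-Glo.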

[3] = system: MCP-1/CCL2 secretion by Trex1-KO BMM; experiment: Inhibition of MCP-1/CCL2 secretion by Trex1-KO bone marrow-derived macrophages; type: cell-based, mice; details: Mus musculus, Macrophage, overnight, media without FBS, normalized to DMSO, read-out: MCP-1/CCL2 IC50
Outline: as §1

[4] = molecular target: Human cGAS amino acids 155-522 (Homo sapiens (Human), UniProt Q8N884); experiment: cGAS biochemical activity assay (ATP remaining, Kinase-Glo Max luminescence); details: human cGAS 155-522, ATP remaining (Kinase-Glo Max); read-out: cGAS IC50
[5] = Solubility of free base (footnote to Table 15); type: physicochemical; details: tested as the HCl salt

Human cGAS amino acids 155-522, sequence (Q8N884 157-522): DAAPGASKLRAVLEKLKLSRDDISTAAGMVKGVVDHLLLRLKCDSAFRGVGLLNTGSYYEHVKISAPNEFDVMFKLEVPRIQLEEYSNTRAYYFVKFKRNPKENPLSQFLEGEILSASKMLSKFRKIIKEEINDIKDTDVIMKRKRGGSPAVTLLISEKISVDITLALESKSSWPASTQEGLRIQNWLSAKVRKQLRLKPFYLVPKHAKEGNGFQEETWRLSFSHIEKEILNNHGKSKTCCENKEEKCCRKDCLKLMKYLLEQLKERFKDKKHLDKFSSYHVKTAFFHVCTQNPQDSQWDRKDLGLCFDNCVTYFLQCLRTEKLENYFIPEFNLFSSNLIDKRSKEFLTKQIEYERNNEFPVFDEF

| IC50 [1] [µM] | IC50 [4] [µM] | solubility of the free base [5] | SMILES | BMM viability (Trex1-KO BMM) [%] | IC50 [2] [µM] | IC50 [3] [µM] |
| --- | --- | --- | --- | --- | --- | --- |
| < 20 | < 20 |  | COc1cccc2oc(-c3c(C#N)[nH]c4c(-c5ccccc5)c(C(F)(F)F)nn4c3=O)nc12 [Compound C1089, 6-(4-methoxybenzo[d]oxazol-2-yl)-7-oxo-3-phenyl-2-(trifluoromethyl)-4,7-dihydropyrazolo[1,5-a]pyrimidine-5-carbonitrile] | 100 | 1.25 | 6.97 |
|  | > 250 | insoluble | COc1cc(CN)cc2oc(-c3c(C)[nH]c4c(-c5ccccc5)c(C(F)(F)F)nn4c3=O)nc12 [Compound C1128, 6-(6-(aminomethyl)-4-methoxybenzo[d]oxazol-2-yl)-5-methyl-3-phenyl-2-(trifluoromethyl)pyrazolo[1,5-a]pyrimidin-7(4H)-one] |  |  |  |
